# Results taken from patent publication US7186862B2, “Microbicidal agents on the basis of biphenylbenzamide derivatives” (Bayer CropScience AG, priority 2002, dated 2007).
# Legend:
# Sphaerotheca fuliginea = assay: Sphaerotheca test (cucumber)/protective; type: in vivo; details: Podosphaera fuliginea, 168 h; application rate 100 g/ha; cucumber plants, protective spray; evaluation 7 days after inoculation; 100% = no infection; read-out: Efficacy in %
# Experimental: (§1) [table] To produce a suitable preparation of active compound, 1 part by weight of active compound is mixed with the stated amounts of solvent and emulsifier, and the concentrate is diluted with water to the desired concentration. To test for protective activity, young plants are sprayed with the preparation of active compound at the stated application rate. After the spray coating has dried on, the plants are inoculated with an aqueous spore suspension of Sphaerotheca fuliginea. The plants are then placed in a greenhouse at about 23° C. and a relative atmospheric humidity of about 70%. Evaluation is carried out 7 days after the inoculation. 0% means an efficacy which corresponds to that of the control, whereas an efficacy of 100% means that no infection is observed.
# Venturia inaequalis = assay: Venturia test (apple)/protective; type: in vivo; details: 240 h, application rate 100 g/ha, apple plants, protective spray, evaluation 10 days after inoculation, 100% = no infection, read-out: Efficacy in %
# Experimental: as §1, with “conidia” for “spore”, “the apple scab pathogen Venturia inaequalis and then remain in an incubation cabin at about 20° C. and 100% relative atmospheric humidity for 1 day.” for “Sphaerotheca fuliginea.”, “21°” for “23°”, “90%.” for “70%.”, “10” for “7”
# Podosphaera leucotricha = assay: Podosphaera test (apple)/protective; type: in vivo; details: 240 h, application rate 100 g/ha, apple plants, protective spray, evaluation 10 days after inoculation, 100% = no infection, read-out: Efficacy in %
# Experimental: as §1, with “suspension of the apple mildew pathogen Podosphaera leucotricha. The plants” for “suspension of Sphaerotheca fuliginea. The plants”, “carried out 10 days after” for “carried out 7 days after”
# [1] = logP determination by HPLC on reversed-phase column (EEC Directive 79/831); type: physicochemical; details: 0.1% aqueous phosphoric acid/acetonitrile gradient; for chromatographic logP: reversed-phase HPLC column (C18), pH 2.3, reversed-phase C18, 43° C.
# Experimental: The logP values given in the tables and preparation examples above are determined in accordance with EEC Directive 79/831 Annex V.48 by HPLC (High Performance Liquid Chromatography) on a reversed-phase column (C18). Temperature: 43° C. The determination is carried out in the acidic range at pH 2.3 using the mobile phases 0.1% aqueous phosphoric acid and acetonitrile; linear gradient from 10% acetonitrile to 90% acetonitrile. Calibration is carried out using unbranched […] (of 3 to 16 carbon atoms) with known logP values (determination of the logP values by the retention time using linear interpolation between two successive alkanones).
# Pyrenophora teres = Pyrenophora teres test (barley)/protective; type: in vivo; details: application rate 500 g/ha; barley plants, protective spray
# Experimental: [table] To produce a suitable preparation of active compound, 1 part by weight of active compound is mixed with the stated amounts of solvent and emulsifier, and the concentrate is diluted with water to the desired concentration. To test for protective activity, young plants are sprayed with the preparation of active compound at the stated application rate. After the spray coating has dried on, the plants are sprayed with a conidia suspension of Pyrenophora teres. The plants remain in an incubation cabin at 20° C. and 100% relative atmospheric humidity for 48 hours. The plants are then placed in a greenhouse at about 20° C. and a relative atmospheric humidity of about 80%.
# Alternaria solani = assay: Alternaria test (tomato)/protective; type: in vivo; details: application rate 750 g/ha; tomato plants, protective spray, inoculation 1 day after treatment; evaluation 7 days after inoculation; 100% = no infection
# Experimental: [table] To produce a suitable p reparation of active compound, 1 part by weight of active compound is mixed with the stated amounts of solvent and emulsifier, and the concentrate is diluted with water to the desired concentration. To test for protective activity, young tomato plants are sprayed with the preparation of active compound at the stated application rate. 1 day after the treatment, the plants are inoculated with a spore suspension of Alternaria solani and are then kept at 100% relative atmospheric humidity and 20° C. for 24 h. The plants are then kept at 96% relative atmospheric humidity and a temperature of 20° C. Evaluation is carried out 7 days after the inoculation. 0% means an efficacy which corresponds to that of the control, whereas an efficacy of 100% means that no infection is observed.
chromatographic logP [1],"logP (pH 2.3) ([1]; reversed-phase C18, 43° C.)",SMILES,pest or weed control at 100 g/ha (Sphaerotheca fuliginea) [%],pest or weed control at 100 g/ha (Venturia inaequalis) [%],pest or weed control at 100 g/ha (Podosphaera leucotricha) [%],Efficacy in % (Pyrenophora teres) [%],Efficacy in % (Alternaria solani) [%]
4.14,,Cc1cc(Cl)ccc1-c1ccccc1NC(=O)c1ccccc1C(F)(F)F [Compound 3],100,100,99,,
4.13,,O=C(Nc1ccccc1-c1ccc(Cl)c(Cl)c1)c1ccccc1C(F)(F)F [Compound 4],100,100,100,100,
4.03,,O=C(Nc1ccccc1-c1ccc(Br)cc1)c1ccccc1C(F)(F)F [Compound 5],,,,,94
3.86,,O=C(Nc1ccccc1-c1cccc(Cl)c1)c1ccccc1C(F)(F)F [Compound 7],100,100,100,90,94
3.75,,O=C(Nc1ccccc1-c1cccc(Cl)c1)c1ccccc1Cl [Compound 12],,100,100,,
3.55,,O=C(Nc1ccccc1-c1ccc(F)c(F)c1)c1ccccc1C(F)(F)F [Compound 33],82,100,100,,94
3.76,,O=C(Nc1ccccc1-c1ccc(Cl)c(F)c1)c1ccccc1C(F)(F)F [Compound 34],95,100,100,,
,3.66,O=C(Nc1ccccc1-c1ccc(Cl)cc1)c1ccccc1Br [Compound 50],,,,,
2.99,,"O=C(Nc1ccccc1Br)c1ccccc1C(F)(F)F [IV-1, N-(2-bromophenyl)-2-(trifluoro-methyl)benzamide]",,,,,

# Further lines, the molecule ahead of its results:
SMILES,chromatographic logP [1],"logP (pH 2.3) ([1]; reversed-phase C18, 43° C.)",pest or weed control at 100 g/ha (Sphaerotheca fuliginea) [%],pest or weed control at 100 g/ha (Venturia inaequalis) [%],pest or weed control at 100 g/ha (Podosphaera leucotricha) [%],Efficacy in % (Pyrenophora teres) [%],Efficacy in % (Alternaria solani) [%]
O=C(Nc1ccccc1-c1ccc(Cl)cc1)c1ccccc1C(F)(F)F [Compound 1],3.73,,94,97,100,,
O=C(Nc1ccccc1-c1ccc(Cl)cc1Cl)c1ccccc1C(F)(F)F [Compound 2],4,,94,,100,,
O=C(Nc1ccccc1-c1ccc(Br)cc1)c1ccccc1Cl [Compound 10],3.89,,,,,,92
O=C(Nc1ccccc1-c1cccc(Cl)c1)c1ccccc1Br [Compound 18],3.78,,,,,,100
"O=C(Nc1ccccc1-c1ccc(F)c(Cl)c1)c1ccccc1C(F)(F)F [Compound 35, N-(3′-chloro-4′-fluoro-1,1′-biphenyl-2-yl)-2-(trifluoromethyl)benzamide]",3.81,,93,100,100,,
O=C(Nc1ccccc1-c1ccc(F)c(C(F)(F)F)c1)c1ccccc1C(F)(F)F [Compound 41],3.9,,100,,94,,
"Cc1cc(-c2ccccc2NC(=O)c2ccccc2C(F)(F)F)ccc1Cl [Compound 42, N-(4′-chloro-3′-methyl-1,1′-biphenyl-2-yl)-2-(trifluoromethyl)benzamide]",4.18,,100,100,100,,
